Key:
NRP1/PlexA1 complexes = assay: in situ proximity ligation assay (Duo-link), NRP1/PlexA1 complexes in U373MG cells; format: cell-based, human; details: U373MG cells, MTP-PlexA1 10^−7 M, vs vehicle
Method: “Zip sequence” is the positive control of dimerization and “Empty” is the negative control of this bacterial system. (C, D) SPR assay (Biacore) to quantify MTP-PlexA1 interactions with PLexA1, NRP1 and VEGFR2 TMDs. (E) Proximity ligation assay showing that MTP-PlexA1 (10^−7 M) decreases the number of PLexA1-NRP1 interactions (green dots) in U373MG cells (scale bar = 20 μm).
Additional specificity controls were performed using a mutated version of MTP-PlexA1 (in which 3 glycines of the GxxxGxxxG motif were replaced by 3 valines or MTP-Neu, an anti-breast cancer peptide known to not interact with PlexA1) as described in Supplementary Figure S2. […] Similar results were obtained when cells were exposed to VEGF (39.4% NRP1 and 35.4% PlexA4, Figure 4B).
Supplementary Figure S2: Specificity controls were performed using a mutated version of MTP-PlexA1 […]
LVIVAVLIAYKRK). Such mutations have been previously shown to be sufficient to lose activity of NRP1 antagonist membrane domain targeting peptide (Roth et al., 2008 Mol Biol Cell). We also used MTP-Neu, a transmembrane domain targeting peptide known to […]
M, a concentration previously shown to produce maximal antagonist activity of the peptide. Additionally, we also repeated the in vitro angiogenic assay on matrigel using HUVEC cells. […]
to MTP-PlexA1. These experiments confirmed the specificity of MTP-PlexA1.
(1 picture or pasted object on this page, not shown here)

HUVEC cells = assay: live-monitoring trans-well migration assay, HUVEC (X-Celligence); format: cell-based, human; details: p = 0.0002
Description: We observed PlexA1 positive blood vessels in the tissue array of GBM samples (Figure 5A). […] To address this possibility we first used a transgenic zebra-fish model tg(kdrl:eGFP) highlighting the endothelial cells. This allowed us to assess the angiogenic activities in vivo by analyzing formation of intersegmental vessels (ISVs) after morpholino-based knockdown of the target.
Figure 5 MTP-PlexA1 inhibits developmental and tumor-specific PlexA1 pro-angiogenic role (A) Microphotographs illustrating the expression of PlexA1 in vascular-like structures in human glioma tissues. (Scale bar: 40 μm). (B) Morpholino-based PlexA1 knockdown in Zebrafish tg(kdrl:eGFP) line. Representative images of control, Plexin-A1 mismatch and Pexin-A1 knockdown embryos (plxna1MO) are shown 28 hours post fertilization (28hpf). […] (E) Live-monitoring of VEGF-induced HUVEC cell migration assay using the XCelligence system (transwell assay). (F) Microphotographs illustrating the expression of PlexA1 in blood vessels of the chick chorioallontoic membrane (upper left picture). Microphotographs (middle and lower left pictures) and camera lucida drawing (middle and lower right pictures) showing representative fields of observation after 24 h incubation with VEGF (100 ng/ml, +vehicle) or VEGF + MTP-PlexA1 (10^−7 M). The number of VEGF-induced new blood vessels is shown in the graph.

[1] = system: chick chorio-allantoic membrane blood vessels; assay: chick embryonic chorio-allantoic membrane assay; format: in vivo; details: chick CAM, local deposition, 10^−7 M, 24 h incubation
Method: The CAM assay was performed using Leghorn eggs. After 4 days incubation at 37°C, the shells were opened and the embryos were transferred to a Petri dish. The CAMs were grown for additional 4 days before deposition of silicone reservoirs in a region containing one large vessel. Reservoirs were filled with 20 μl VEGF165 solution (20 μg/ml) or a combination of VEGF165 (20 μg/ml) + MTP-PlexA1 (10–7 M). After 24 h incubation, micro- photographs were taken for quantification of vessel growth. Camera lucida drawing was systematically performed to allow better counting of blood vessels and sprouting; the entire analysis being performed in blind conditions.

PlexA1-NRP1 interactions = assay: proximity ligation assay on U118MG tumor sections; format: in vivo, human cells in mouse; details: proximity ligation assay on tumor tissue, treated mice; p = 0.0051, Mann Whitney
Method: To address the biological consequences of MTP-PlexA1-mediated inhibition of PlexA1 we used the U118MG-Luc glioma cell line genetically engineered to express the luciferase reporter gene. […] Cells were then grafted subcutaneously and tumor growth was monitored every 5 days for a total period of 20 days. […] The quantitative analysis of the cumulated luminescent signal acquired all along the protocol confirmed the strong reduction of tumor development translating into a marked 75% reduction of the averaged luminescent signal at the end point (Figure 6C). […] In order to clarify the mechanism by which MTP-PlexA1 is exerting tumor growth inhibition we collected tumors and analyzed them histologically.
(B) Representative photographs illustrating the kinetic of tumor growth over 20 days in the two experimental groups. […] (D) Waterfall plot of best response representing the percent change in tumor volume of individual treated animals (grey bars, n = 10) compared to the average tumor volume increased determined in the control group (dark bars, n = 10). […] (F) Representative microphotographs and related quantification of PH3 positive cells in tumor slices (G) Representative microphotographs and related quantification of CD31 positive regions in tumor slices (% CD31 per μm² of tumors).

NCH644 cells = assay: MTS proliferation assay, NCH644 glioma stem cells; format: cell-based, human; details: NCH644, p < 0.0001

TLPAIVGIGGGGGLLLLVIVAVLIAYKRK [MTP-PlexA1, synthetic transmembrane peptide mimicking the TMD of PlexA1]
reduction of NRP1/PlexA1 complexes (NRP1/PlexA1 complexes): 29.4% | change of VEGFA-induced HUVEC cell migration (HUVEC cells): −63% | VEGFA-induced vascular growth and complexity [1]: significantly inhibited | change of PlexA1-NRP1 interactions in tumor sections (PlexA1-NRP1 interactions): −48.5% | change of proliferation of glioma stem cells (NCH644 cells): −10%

— PMC5295395, “Inhibition of PlexA1-mediated brain tumor growth and tumor-associated angiogenesis using a transmembrane domain targeting peptide” (Oncotarget, 2016)
